Test results from patent US20100075343A1, “NOVEL PEPTIDES” (priority 2007, published 2010).
Ends that are not written are not given here.

Experiments:
[1] = tested on: antiserum against ESPGPERVW peptide of human VGF; type: binding; details: for inhibition of binding of the antiserum to labeled peptide: 1, 10, and 100 pmol of the peptides
Description: Namely, to 100 μL of antiserum diluted 9×10^5 folds with RIA buffer, 100 μL of RIA buffer containing a fixed amount of [^125I]-labeled Peptide 1 (approximately 20000 cpm, 500-550 Bq, approximately 9 fmol in terms of peptide amount) and 100 μL of RIA buffer solutions each containing a sequentially diluted VGF-derived peptide were added, this was incubated at 4° C. for 40 hours, and the labeled Peptide 1 and VGF-derived peptide were competitively bound to the antibody in the antiserum. As controls, reactions that use RIA buffer instead of the antiserum to measure non-specific binding, and reactions that use RIA buffer instead of VGF-derived peptide solutions to measure the maximum binding level were carried out. Reactions for non-specific binding were performed in quadruplicates, and the other reactions were performed in duplicates, and for each of the reactants, the immune complex was precipitated as in the above-mentioned antibody titer measurements, and its radioactivity (cpm) was measured. The average radioactivity of non-specific binding reaction is defined as non-specific binding level N, the radioactivity value for each VGF-derived peptide addition reaction is defined as Y, and the radioactivity value of maximum binding reaction is defined as Z. The percentage ratio (B/B0) of antiserum specific binding level (B) with peptide addition to the maximum binding level (B0), was determined using the following formula.
B/B0(%)={(Y−N)/(Z−N)}×100
Accordingly, the amount of peptide that achieves 50% B/B0, more specifically, the amount of peptide that yields 50% inhibition of the maximum binding level, was used as an indicator of the peptide binding activity to the antiserum.

[2] = tested on: hypothalamic cells of the apoaequorin-expressing mice; assay: Intracellular calcium ion increase (aequorin luminescence), hypothalamus; type: cell-based, mouse; details: for increase of intracellular calcium concentration in hypothalamic cells (RLU per second): added at 25 seconds; for luminescence (intracellular calcium ion increase) in hypothalamus: peptide at final concentrations of 1 μmol/L and 5 μmol/L
Description: (§1) A hypothalamus, pituitary gland, kidney, heart, blood vessel, or a portion of brain tissue is collected from transgenic mice systemically expressing apoaequorin (WO02/010371) produced by introducing an apoaequorin gene expression vector into fertilized eggs. The obtained hypothalamus, pituitary gland, kidney, heart, blood vessel, or brain tissue is cut finely into pieces, suspended in a medium containing coelenterazine, and then incubated to incorporate coelenterazine into the cells to form aequorin (a complex of apoaequorin and coelenterazine). Since aequorin luminesces upon binding to intracellular calcium ions, the relative luminescence level in cells before and after addition of a medium containing the peptide or a pharmaceutically acceptable salt thereof is measured in a luminometer every second over time and is used as an indicator of intracellular calcium ion concentration. Increase in the relative luminescence level due to addition of the peptide or pharmaceutically acceptable salt thereof confirms that the peptide or pharmaceutically acceptable salt thereof has the activity to increase intracellular calcium ion concentration.
(§2) Whether Peptides 1 to 8 synthesized in Example 2 have the activity of increasing intracellular calcium ion concentration was investigated using the organs of transgenic mice introduced with the apoaequorin gene and systemically expressing apoaequorin (hereinafter referred to as apoaequorin-expressing mice). In apoaequorin-expressing mouse cells, light is emitted when apoaequorin binds to a calcium ion in the presence of the luminescent substrate coelenterazine and thus the intracellular calcium ion concentration can be monitored. Patent Document (WO02/010371) discloses the method for producing apoaequorin-expressing mice, method for evaluating biologically active substances that use biological samples derived from the mice, and experimental results of evaluating biologically active peptides using the mouse organs as shown below. […] Therefore, apoaequorin-expressing mice can be used in the evaluation of the physiological activities of novel peptides.
(§3) Apoaequorin-expressing mice were produced according to the method disclosed in Reference Example 4 of Patent Document (WO02/010371). The apoaequorin-expressing mice were sacrificed, individual organs including thymus, hypothalamus, spleen, bone, aorta, heart, kidney, adrenal gland, pancreas, pituitary gland, uterus, medulla oblongata, and spinal cord were removed; and each of the organs was cut into small cubes of approximately 1 to 2 mm^3. Next, in 5-mL tubes (Rohren-Tubes; manufactured by Sarstedt, No. 55.476), three portions of each of the prepared organs were added to 50 μL of a 10 μmol/L solution of coelenterazine (manufactured by Molecular Probes) dissolved in RPMI 1640 medium, and these were cultured at 37° C. for three hours. After culturing, RPMI 1640 medium was added, and then Peptides 1 to 5 dissolved in RPMI 1640 medium were added 25 seconds after the addition of RPMI 1640 until each peptide had final concentrations of 1 μmol/L and of 5 μmol/L, and the relative luminescence levels were measured every second immediately after the addition of RPMI 1640 medium by using a luminometer (AutoLumat LB953, manufactured by Berthold).

[3] = tested on: pituitary cells of the apoaequorin-expressing mice; assay: Intracellular calcium ion increase (aequorin luminescence), pituitary gland; type: cell-based, mouse; details: for increase of intracellular calcium concentration in pituitary cells (RLU per second): added at 25 seconds; for luminescence (intracellular calcium ion increase) in pituitary gland: peptide at final concentrations of 1 μmol/L and 5 μmol/L
Description: as §1, §2, §3

[4] = tested on: cardiac cells of the apoaequorin-expressing mice; assay: Intracellular calcium ion increase (aequorin luminescence), heart; type: cell-based, mouse
Description: as §1, §2, §3

[5] = tested on: medulla oblongata of apoaequorin-expressing mice; assay: Intracellular calcium ion increase (aequorin luminescence), medulla oblongata; type: cell-based, mouse; details: peptide at final concentrations of 1 μmol/L and 5 μmol/L
Description: as §1, §2, §3

male rats = details: direct administration to the PVN of male rats; Non-patent Document 7; cited from earlier work
[6] = tested on: thymus of apoaequorin-expressing mice; assay: Intracellular calcium ion increase (aequorin luminescence), thymus; type: cell-based, mouse; details: peptide at final concentrations of 1 μmol/L and 5 μmol/L
Description: as §1, §2
Apoaequorin-expressing mice were produced according to the method disclosed in Reference Example 4 of Patent Document (WO02/010371). […] After culturing, RPMI 1640 medium was added, and then Peptides 1 to 5 dissolved in RPMI 1640 medium were added 25 seconds after the addition of RPMI 1640 until each peptide had final concentrations of 1 μmol/L and of 5 μmol/L, and the relative luminescence levels were measured every second immediately after the addition of RPMI 1640 medium by using a luminometer (AutoLumat LB953, manufactured by Berthold).

[7] = tested on: kidney cells of the apoaequorin-expressing mice; assay: Intracellular calcium ion increase (aequorin luminescence), kidney; type: cell-based, mouse
Description: as §1, §2, §3

[8] = 1 μmol/L peptide, added at 25 seconds
[9] = peptide at final concentrations of 1 μmol/L and 5 μmol/L

melanin-concentrating hormone
inhibition of binding of the antiserum to labeled peptide [1]: none of these peptides showed inhibition

secretin
inhibition of binding of the antiserum to labeled peptide [1]: none of these peptides showed inhibition

Peptide 9: amino acid sequence at position 554 to 577 in human VGF (TLQPPSALRRRHYHHALPPSRHYP; synthetic Peptide 9, VGF-related peptide, human VGF positions 554-577)
increase of intracellular calcium concentration in hypothalamic cells (RLU per second) ([2]; 5 μmol/L peptide): increase of intracellular calcium concentration | luminescence (intracellular calcium ion increase) in hypothalamus [2]: luminescence was observed | increase of intracellular calcium concentration in pituitary cells (RLU per second) ([3]; 5 μmol/L peptide): increase of intracellular calcium concentration | luminescence (intracellular calcium ion increase) in pituitary gland [3]: luminescence was observed

peptide HI: non-VGF peptide (HADGVFTSDYSRLLGQISAKKYLESLI; ends and bridges not checked; UniProt P01283 81-107, looked up)
inhibition of binding of the antiserum to labeled peptide [1]: none of these peptides showed inhibition

neuromedin U-8
inhibition of binding of the antiserum to labeled peptide [1]: none of these peptides showed inhibition

NC(=O)CC[C@@H]1NC(=O)[C@H](Cc2ccccc2)NC(=O)[C@H](Cc2ccc(O)cc2)NC(=O)[C@@H](N)CSSC[C@@H](C(=O)N2CCC[C@H]2C(=O)N[C@@H](CCCN=C(N)N)C(=O)NCC(N)=O)NC(=O)[C@H](CC(N)=O)NC1=O [vasopressin]
inhibition of binding of the antiserum to labeled peptide [1]: none of these peptides showed inhibition

Peptide 2: amino acid sequence at position 195 to 206 in human VGF (VNLESPGPERVW; synthetic Peptide 2, VGF-related peptide, human VGF positions 195-206)
increase of intracellular calcium concentration in cardiac cells (RLU per second) [4, 8]: increase of intracellular calcium concentration | luminescence (intracellular calcium ion increase) in heart [4, 9]: luminescence was observed | luminescence (intracellular calcium ion increase) in medulla oblongata [5]: luminescence was observed | increase of intracellular calcium concentration in hypothalamic cells (RLU per second) ([2]; 1 μmol/L peptide): increase of intracellular calcium concentration | luminescence (intracellular calcium ion increase) in hypothalamus [2]: luminescence was observed | increase of intracellular calcium concentration in pituitary cells (RLU per second) ([3]; 1 μmol/L peptide): increase of intracellular calcium concentration | luminescence (intracellular calcium ion increase) in pituitary gland [3]: luminescence was observed

neuropeptide Y
inhibition of binding of the antiserum to labeled peptide [1]: none of these peptides showed inhibition

CC[C@H](C)[C@@H]1NC(=O)[C@H](CCCNC(=N)N)NC(=O)[C@H](CC(=O)O)NC(=O)[C@H](CCSC)NC(=O)[C@H](CCCNC(=N)N)NC(=O)CNC(=O)CNC(=O)[C@H](Cc2ccccc2)NC(=O)[C@@H](NC(=O)[C@H](CO)NC(=O)[C@H](CO)NC(=O)[C@H](CCCNC(=N)N)NC(=O)[C@H](CCCNC(=N)N)NC(=O)[C@H](CC(C)C)NC(=O)[C@@H](N)CO)CSSC[C@@H](C(=O)N[C@@H](CC(N)=O)C(=O)N[C@@H](CO)C(=O)N[C@@H](Cc2ccccc2)C(=O)N[C@@H](CCCNC(=N)N)C(=O)N[C@@H](Cc2ccc(O)cc2)C(=O)O)NC(=O)CNC(=O)[C@H](CC(C)C)NC(=O)CNC(=O)[C@H](CO)NC(=O)[C@H](CCC(N)=O)NC(=O)[C@H](C)NC(=O)CNC1=O [atrial natriuretic peptide]
inhibition of binding of the antiserum to labeled peptide [1]: none of these peptides showed inhibition

rat VGF (577-617): known partial peptide, positions 577-617 of rat VGF (HHPDLEAQARRAQEEADAEERRLQEQEELENYIEHVLLHRP; UniProt P20156 577-617, looked up, fragment)
erection inducing activity (male rats): showed an erection inducing activity

Leu-enkephalin
inhibition of binding of the antiserum to labeled peptide [1]: none of these peptides showed inhibition

corticotropin-releasing factor
inhibition of binding of the antiserum to labeled peptide [1]: none of these peptides showed inhibition

calcitonin receptor-stimulating peptide
inhibition of binding of the antiserum to labeled peptide [1]: none of these peptides showed inhibition

melanocyte-stimulating hormone
inhibition of binding of the antiserum to labeled peptide [1]: none of these peptides showed inhibition

calcitonin
inhibition of binding of the antiserum to labeled peptide [1]: none of these peptides showed inhibition

rat VGF (588-617): known partial peptide, positions 588-617 of rat VGF (AQEEADAEERRLQEQEELENYIEHVLLHRP; UniProt P20156 588-617, looked up, fragment)
erection inducing activity (male rats): showed an erection inducing activity

Peptide 3: amino acid sequence at position 485 to 495 in human VGF (NAPPEPVPPPR; synthetic Peptide 3, VGF-related peptide, human VGF positions 485-495)
luminescence (intracellular calcium ion increase) in medulla oblongata [5]: luminescence was observed | luminescence (intracellular calcium ion increase) in thymus [6]: luminescence was observed | increase of intracellular calcium concentration in kidney cells (RLU per second) [7, 8]: increase of intracellular calcium concentration | luminescence (intracellular calcium ion increase) in kidney [7, 9]: luminescence was observed | increase of intracellular calcium concentration in hypothalamic cells (RLU per second) ([2]; 1 μmol/L peptide): increase of intracellular calcium concentration | luminescence (intracellular calcium ion increase) in hypothalamus [2]: luminescence was observed | increase of intracellular calcium concentration in pituitary cells (RLU per second) ([3]; 5 μmol/L peptide): increase of intracellular calcium concentration | luminescence (intracellular calcium ion increase) in pituitary gland [3]: luminescence was observed

rat VGF (599-617): known partial peptide, positions 599-617 of rat VGF (LQEQEELENYIEHVLLHRP; UniProt P20156 599-617, looked up, fragment)
erection inducing activity (male rats): showed an erection inducing activity

ESPGPERVW
amount of the peptide that yields 50% inhibition of the maximum binding level (B/B0 50%) ([1]; antiserum diluted 9×10^5 folds, [125I]-labeled peptide approximately 9 fmol): 9.0 fmol

Met-enkephalin-Arg-Gly-Leu (YGGFMRGL) [non-VGF peptide]
inhibition of binding of the antiserum to labeled peptide [1]: none of these peptides showed inhibition

glucagon
inhibition of binding of the antiserum to labeled peptide [1]: none of these peptides showed inhibition

PAMP-20
inhibition of binding of the antiserum to labeled peptide [1]: none of these peptides showed inhibition

adrenomedullin
inhibition of binding of the antiserum to labeled peptide [1]: none of these peptides showed inhibition
